Results as given in US10556860B2, “hTERT modulators and methods of use” (Arizona Board of Regents on Behalf of the University of …, priority 2015, dated 2020).

Legend:
[1] = test system: G124/125A mutant hTERT G-quadruplex; experiment: CD melting (Tm), G124/125A mutant; type: binding, human; details: 2 equiv
Experimental: Circular dichroism. Oligomers of WT, G124A, G124/125A, G138/139A and G146A were synthesized and HPSF-purified by MGW Operon, Inc. For CD analysis, oligomers (5 μM) in a buffer containing 10 mM Tris-HCl (pH 7.5) and 140 mM KCl were annealed. For the CD analysis of the complex of oligomers and compounds, oligomers (5 μM) in a buffer containing 10 mM Tris-HCl (pH 7.5) and 5 mM KCl for GTC365 or 1 mM KCl for BRACO-19 were annealed. Oligomers and GTC365 or BRACO-19 were incubated overnight at room temperature. For the full-length of C-rich strand, the oligomer in a buffer of 10 mM Na cacodylate (pH 6.6) was annealed and then incubated with GTC365 overnight. CD analysis was conducted on a Jasco 810 spectropolarimeter (Jasco, Easton, Md.) using a quartz cell with 1 mm of path length, 1 nm of band width, and 1 s of response time for spectra at 20° C. Melting curves for the determination of Tm were obtained by recording ellipticity at 262 nm with increasing temperatures from 25° C. to 95° C. at a rate of 1.6° C./min. Tm of the C-rich strand with GTC365 was obtained from the CD signal at 286 nm within 10-60° C.
CD and DMS footprinting analyses were conducted to characterize the binding of GTC365 and BRACO-19 to the 5-12 G-quadruplex. […] To verify the effects of compounds on the thermal stability of the WT and the mutant G-quadruplexes, Tms were determined by CD. […]

[2] = test system: G124/125A 5-12 G-quadruplex; experiment: CD kinetics, temperature-jump, G124/125A; type: biochemical, human; details: 2 equiv
Experimental: FIGS. 10A and 10B are a set of graphs showing (A) comparison of kinetics of initial folding rate of the WT 5-12 G-quadruplex with GTC365 and BRACO-19 by the temperature-jump method. (B) Enhanced initial folding rate of the 5-12 G-quadruplexes carrying different hTERT mutants by GTC365. The time-course CD signal of preheated oligo with compound or DMSO in a buffer containing 10 mM Tris-HCl (pH 7.5) and 5 mM KCl was monitored at 262 nm and 25° C.
For the kinetics analysis using the temperature-jump method, theoligo in a buffer containing 10 mM Tris-HCl (pH 7.5) was heated forl min at 95° C., and then a mixture of KCl and compound was addedand incubated for 1 min. Meanwhile, the CD cuvette was also heatedat 95° C. As soon as the sample in the CD cuvette at the hightemperature was placed in the CD chamber, a time-dependent CDsignal at 262 nm was recorded immediately. The initial folding ratewas determined by one-phase association curve fitting (eq 1) of thekinetics curve using GraphPad Prism 5: Y=Y0+(Plateau−Y0)*(1−e^−kx) (1) where Y is the CD signal at any time point x, Y0 is the Y value whentime (x) is zero, plateau is the Y value at infinite time, and k is the rateconstant.
To evaluate the comparative effects of GTC365 relative to BRACO-19 on the cooperative folding process, we carried out two different experiments. […]

[3] = test system: hTERT under the control of the CMV promoter; experiment: hTERT transcription in MCF7 cells overexpressing hTERT under CMV promoter; type: cell-based, human; details: MCF7 cell line transfected with plasmid overexpressing hTERT (CMV promoter)
Experimental: qPCR. MCF7 and melanoma cells were treated with GTC365 and BRACO-19 for 72 h. Total RNA was extracted using an RNeasy mini-prep kit (Qiagen) and quantitated by measuring absorbance at 260 nm. cDNA was synthesized using a Takara PrimeScript™ RT Reagent Kit with gDNA eraser and then used as a template for qPCR. The qPCR was performed using Kapa Probe Fast qPCR Master Mix with ABI Taqman probes of hTERT (Hs00972656_m1), BCL2 (HS00608023_m1, FAM-labeled) or MYC (Hs00153408_m1), and GAPDH (Hs02758991_g1, VIC-labeled). The Ct values were measured by running Rotor-Gene Q, and the relative quantity of hTERT, BCL2, and MYC mRNA was obtained compared to GAPDH as an internal control.
Establishment of stable cell lines overexpressing hTERT. The pCDNA-3XHA-hTERT plasmid containing hTERT driven by theCMV promoter was obtained from Addgene (ID: 51637) deposited by Dr. Steven Artandi. MCF7 cells in a 24-well plate were transfected with this plasmid (250 ng) using FuGENE HD transfection reagent for24 h. Cells were treated with several concentrations of G418 (0.1-1 mg/mL) and an antibiotic for colony selection for 4 weeks, and thenone colony was selected for further culture. […]

Compound: N=C(N)NCCCS(=O)(=O)Nc1ccc(Nc2c3ccccc3nc3cc([N+](=O)[O-])ccc23)cc1 [GTC365]
- Tm more increased compared to the WT [1]: 6-7 °C
- increase of initial folding rate [2]: 0.042 s⁻¹
- effect on hTERT transcription [3]: no effect
